Laboratory results taken from PubChem BioAssay AID2305 (GlaxoSmithKline (GSK), 2010).

system: P. falciparum 3D7 growth, pLDH absorbance; experiment: P. falciparum 3D7 growth inhibition, dose response, strain 3D7 (AID 2305)

SMILES | IC50 [nM]
Cc1[nH]c(C)c(-c2ccc(-c3ccc(C(F)(F)F)cc3C(F)(F)F)nc2)c(=O)c1Br | 190
O=C(/C=C/c1ccc(Cl)c(Cl)c1)N1CCN(C(=O)Nc2ccc(F)c(Cl)c2)CC1 | 720
CCCCOc1c(CNCCCCCCNCc2ccc3ccccc3c2OCCCC)ccc2ccccc12 | 870
CC(=O)Nc1nc(C(=O)Nc2cccc(-c3cccc(-c4nc5ccc(F)cc5[nH]4)c3)c2)cs1 | 90
Brc1ccccc1CNc1ccnc(NCCn2ccnc2)n1 | 900
Oc1cccc(CCNCCCCCCNCCc2ccc(Cl)cc2)c1 | 770
c1cncc(CCNCc2cccc(-c3csc(-c4nc5ccccc5[nH]4)c3)c2)c1 | 700
Cc1ccc(Nc2nc(NN=Cc3cccc([N+](=O)[O-])c3)nc(Nc3ccccc3)n2)c(C)c1 | 630
O=C(NCCCN1CCCC1=O)c1cnc(N2CCC(Oc3ccccc3)CC2)c(Cl)c1 | 300
COc1ccc2nccc([C@@H](O)CN3CCC(NCc4ccc5c(c4)NC(=O)C(C)(C)O5)CC3)c2c1 | 400
CC(C)(C)N1CCC(N(Cc2ccc(-c3ccc(C(F)(F)F)cc3)cc2)C(=O)Cn2c(CCc3cccc(F)c3F)cc(=O)c3cccnc32)CC1 | 710
COc1ccc(-n2nc(C)c3c2NC(=O)CC3c2ccccc2OCc2ccc(F)cc2)cc1 (stereo unspecified) | 850
NC(N)=NCCN(Cc1ccccc1)c1ccc(Cl)cc1 | 50
Cc1ccc(NC(C)C(=O)Nc2ccc(C#N)cc2)cc1S(=O)(=O)N1CCCCC1 (stereo unspecified) | 540
N=C(N)c1cc(Br)cc(NC(=O)Nc2cc(Br)cc(C(=N)N)c2)c1 | 820
Cc1nc(N)nc(N)c1OCCCCOc1ccccc1 | 50
COc1cccc(CCNCCCCCCNCCc2ccc(Cl)cc2)c1 | 1010
Cc1cccc2[nH]c(-c3ccc(-c4ccc(NC(=O)NCc5ccc(F)cc5)cc4)cc3)nc12 | 1330
Cc1cc(C(=O)Nc2ccc(-c3nc4ccccc4[nH]3)cc2)ccc1[N+](=O)[O-] | 670
COc1cc(NC(=O)/C=C/c2ccccc2Cl)cc(OCCN2CCC(O)(c3ccccc3)CC2)c1 | 170
CCOc1cc2ncnc(Nc3ccc(OCc4c(Cl)cccc4Cl)c(OC)c3)c2cc1OCC | 1050
CCOC(=O)c1cn(CC)c2cc(O[C@H]3CCN(C(=O)OC(C)(C)C)C3)ccc2c1=O | 550
O=C(NCC1CCN(Cc2cccc(C(F)(F)F)c2)C1)c1cc(-c2cccc(C(F)(F)F)c2)cs1 (stereo unspecified) | 610
O=C(N[C@@H](CC1CCCCC1)C(=O)NCCN1CCCC1)c1ccc(O)c(-c2ccc(Cl)c(Cl)c2)c1 | 310

SMILES | IC50 [nM]
O=C(Nc1ccc(N2CCNCC2)nc1)c1oc(-c2ccccc2)nc1C(F)(F)F | 980
CN1CCc2cc(I)c(O)cc2C1Cc1ccccc1Cl (stereo unspecified) | 790
Cc1nc(C)c(CC(=O)Nc2ccc(-c3cccc(-c4nc5c(C)cccc5[nH]4)c3)cc2)s1 | 600
CC(C)N(C(=O)CSc1nc2cc(Cl)ccc2c(=O)n1Cc1ccccc1)C(C)C | 170
Cc1cc(NC(=O)NCCN2CCC(NC(=O)c3ccc(Cl)cc3)CC2)c2ccccc2n1 | 380
Cc1cc(-c2ccc3c(c2)CCN(CCC2CCC(NC(=O)/C=C/c4cccc(F)c4)CC2)CC3)on1 (stereo unspecified) | 750
O=C(c1cc(C(=O)NC2CCCCC2)c(=O)n(C2CCCCC2)c1)c1cc(F)ccc1O | 630
O=C(Nc1cccc(-c2cccc(-c3nc4ccc(F)cc4[nH]3)c2)c1)c1ccoc1 | 330
COc1ccc(CNCc2ccc(F)cc2)cc1-c1ccc(S(=O)(=O)NCCN2CCCC2)c(C)c1 | 730
Cc1nc(-c2cccc(Nc3nccc(NCC(O)c4cccc(C(F)(F)F)c4)n3)c2)cs1 (stereo unspecified) | 630
COc1cc2nc(N3CCC(CNC(=O)c4ccc(C(C)=O)cc4)CC3)nc(N)c2cc1OC | 1120
CC(C)CCNC(=O)C1Cc2c([nH]c3ccc(Br)cc23)C2(CCN(CCc3ccccc3)CC2)N1 (stereo unspecified) | 690
COc1ccc(NC(=O)c2csc(-c3cc(NC(=O)c4ccnc(N5CCCC5)c4)ccc3C)c2)cc1N1CCN(C)CC1 | 660
O=S(=O)(NCCN1CCCC1)c1ccc(-c2cccc(CNC3Cc4ccccc4C3)c2)s1 | 750
CN1CCC(NCc2cccc(-c3ccc(S(=O)(=O)NCCc4ccccn4)c(F)c3)c2)CC1 | 920
Cc1cccc2[nH]c(-c3ccc(-c4cccc(CN5CCC(CO)CC5)c4)s3)nc12 | 940
CCCC(=O)Nc1ccc(OCCCN(Cc2ccccc2OC(F)(F)F)c2ccc(C#N)c(C(F)(F)F)c2)cc1 | 600
COc1ccccc1N1CCN(C(C(=O)NCc2ccc(C)cc2)c2ccc(C)cc2)CC1 (stereo unspecified) | 930
CN1CCN(S(=O)(=O)c2cccc(Nc3nccc(N(C)c4ccc5c(c4)nc(NC(=O)c4cccs4)n5C)n3)c2)CC1 | 750
Cc1ccc(NC(=O)NC2CCN(c3ccnc4ccccc34)CC2)cc1 | 790
O=C(c1cccs1)N1CCN(c2ccc([N+](=O)[O-])c(NC3CC3)c2)CC1 | 770
Cn1cncc1C(=O)Nc1ccc(-c2ccc(-c3nc4ccc(C(F)(F)F)cc4[nH]3)cc2)cc1 | 560
CCNc1cc(C(=O)N[C@@H](Cc2cc(F)cc(F)c2)[C@H](O)CNCc2cccc(C(F)(F)F)c2)cc(N2CCCCS2(=O)=O)c1 | 610
Cc1cccc2[nH]c(-c3ccc(-c4cccc(NCc5cn6cccnc6n5)c4)cc3)nc12 | 790

SMILES | IC50 [nM]
Cc1cccc2[nH]c(-c3ccc(-c4cccc(NC(=O)Cc5cnc[nH]5)c4)cc3)nc12 | 900
COCn1ncc2cc(-c3cccc(NC(=O)c4csc(NC(C)=O)n4)c3)ccc21 | 990
CCCNCc1ccc(-c2ccc(CN(CCOC)C(=O)c3ccc([N+](=O)[O-])c(C)c3)cc2)nc1 | 870
C[C@H](NCCC1CCC(NC(=O)N[C@H](C)C(O)(c2ccccc2)c2ccccc2)CC1)c1cccc2ccccc12 (stereo partly specified) | 1100
c1ccc(C2CCN(Cc3ccc(-c4c[nH]c5nc(NC6CCCC6)ncc45)cc3)CC2)cc1 | 1010
c1ccc2c(c1)cc(CNCCCN1CCN(CCCNCc3cc4ccccc4c4ccccc34)CC1)c1ccccc12 | 200
O=S(=O)(c1cccc(Cl)c1F)N(CCC(O)(C(F)(F)F)C(F)(F)F)Cc1cccc(O)c1 | 920
Cc1ccc(NC(=O)Nc2ccccc2)cc1-c1ccc(C(=O)Nc2ccncc2)cc1 | 240
OC(CNCc1ccccc1Oc1ccccc1)c1cc(Br)cs1 (stereo unspecified) | 1110
CNC(=O)/C=C/c1cc(NC(=O)Nc2ccnc3c(Br)cccc23)ccc1OC | 860
COc1ccc(S(=O)(=O)N(CC(=O)NN=C(C)c2cccs2)c2cc(C)cc(C)c2)cc1OC | 140
O=C(/C=C/c1ccc(Cl)c(Cl)c1)NCc1ccc(CN2CCC(c3c[nH]c4ccccc34)CC2)cc1 | 710
CC(C)CC(=O)Nc1cc(=O)[nH]c2nc(-c3ccccc3)nn12 | 350
OCC1CCN(Cc2ccc(-c3ccc(-c4nc5ccc(C(F)(F)F)cc5[nH]4)cc3)cc2)CC1 | 700
COC(=O)C(c1ccc(NC(=O)[C@H](CC(C)C)NC(=O)OC(C)(C)C)cc1)c1ccc(NC(=O)[C@H](CC(C)C)NC(=O)OC(C)(C)C)cc1 | 350
Cc1cccc2[nH]c(-c3cccc(-c4cccc(NC(=O)c5cccnc5)c4)c3)nc12 | 230
CCCCCNc1nc2nc(N)nc(N)c2nc1-c1ccccc1 | 950
CC(C)CCCC(C)(C)NC[C@@H](O)[C@H](Cc1ccccc1)NC(=O)c1cccc(OCC2CC2)c1 | 840
CS(=O)(=O)CCN(CCS(C)(=O)=O)Cc1ccc(-c2ccc3ncnc(Nc4ccc(OCc5cccc(F)c5)c(Cl)c4)c3c2)o1 | 1020
Cc1cc(N[C@@H](Cc2ccccc2)C(=O)NCc2cccs2)nc(NCCOc2ccccc2)n1 | 1480
CN1CCN(c2ccnc3ccc(NC(=O)Nc4ccccc4Br)cc23)CC1 | 370
O=C(NC1CC1)c1cnc(N2CCC(Oc3ccc(Cl)cc3)CC2)c(Cl)c1 | 1090
COc1ccc(CNC2CCN(C)CC2)cc1-c1ccc(S(=O)(=O)NC2CCC2)c(C)c1 | 990
Cc1cc(CN2CC[C@H](NC(=O)c3ccc(Cl)c(Cl)c3)C2)ccc1OCCCN(C)C | 840

SMILES | IC50 [nM]
CCCc1cc(O)c2c3c(c(=O)oc2c1)CN(C)CC3 | 870
CCN(CC)C(=O)c1cnc(-c2ccccc2)nc1Oc1cccc(Cl)c1 | 1160
COc1ccc(CNCc2ccccc2)cc1-c1ccc(S(=O)(=O)NCCN2CCCC2)c(F)c1 | 1140
CC[C@H](C)CNC(=O)c1cncc(-c2ccc(CNCCCc3ccccc3)cc2)c1 | 730
Fc1cccc(COc2ccc(Nc3ncnc4sc(C#CC5CCCCN5)cc34)cc2Cl)c1 (stereo unspecified) | 540
COc1ccc(Cn2c(Nc3cccc(C(F)(F)F)c3)nc3ccc(C(=O)NCCN4CCCC4)cc32)cc1Cl | 750
Cc1c(C(C)(C)C)ccc2nc(N)nc(N)c12 | 10
Cc1ccc(Nc2cc(C)nn2-c2nc(C)cc(=O)[nH]2)cc1 | 860
COc1ccc(C)c(Nc2ccnc(Nc3cccc(-c4nc5ccccc5[nH]4)c3)n2)c1 | 720
COc1cc(C(=O)NCCCN2CCN(c3cccc(Cl)c3)CC2)ccc1-c1cc2cc(Cl)c(Cl)cc2[nH]1 | 470
N#Cc1cc(C(=O)c2cc(Br)ccc2O)cn(-c2cc(Cl)cc(Cl)c2)c1=O | 880
COc1ccc(S(=O)(=O)N2CCC3(CC2)OCC(=O)NC3c2ccc(Cl)c(Cl)c2)cc1 (stereo unspecified) | 640
COc1cccc(Nc2nc(NCCO)c3ccccc3n2)c1 | 150
Cc1ccnc(NC(c2ccc(Cl)c([N+](=O)[O-])c2)c2ccc3cccnc3c2O)c1 (stereo unspecified) | 930
CCC1(C)CC(CCNCc2ccccc2O)(c2ccc(F)cc2)CCO1 (stereo unspecified) | 880
O=[N+]([O-])c1ccc(-c2ccc(C=NNc3nc(Nc4ccccc4)nc(Nc4ccccc4)n3)o2)cc1 | 1430
Cc1ccccc1C(O)CNc1ccnc(Nc2cccc(C#N)c2)n1 (stereo unspecified) | 880
CNCc1ccc(-c2cccc(CNCc3ccc(-c4ccccc4)cc3)c2)c(C(=O)OC)c1 | 980
c1ccc(C(c2ccccc2)N2CCN(C(c3cccnc3)c3nnnn3C3CCCC3)CC2)cc1 (stereo unspecified) | 1080
O=C(NCCCN1CCN(c2cccc(Cl)c2)CC1)c1ccc(-c2nc3cc(Cl)c(Cl)cc3[nH]2)c(F)c1 | 830
CN(C)c1ccc(C=C2SC(=N)N(c3nccs3)C2=O)cc1 | 460
CC(=O)Nc1ccc(NC(=O)c2cc(-c3ccc(C)cc3O)n[nH]2)cc1 | 490
O=C(Nc1ccc2c(c1)CN(Cc1ccc(N3CCCC3)o1)CCC2)c1cncs1 | 1570
COc1ccc(CNCc2cccc(-c3ccc(-c4nc5ccc(C(F)(F)F)cc5[nH]4)cc3)c2)cc1 | 130
